Holding throughout (format): physicochemical
The target in assay [1] is lysozyme (Gallus gallus, UniProt P00698). The experiment in a line: Stabilization of lysozyme measured by DSF (melting temperature). The conditions noted are these: 0.25 M stabiliser, FIG. 1; for stabilization effect on lysozyme (increase of melting temperature Tm): 25 mM sodium acetate buffer pH 3.6 and phosphate buffer pH 12, Tm without compounds 71 °C (pH 3.6) and 55 °C (pH 12); for stabilization effect on lysozyme at pH 12 compared with pH 3.6: DSF. The method, then:
(§1) Differential Scanning Fluorimetry (DSF) Assay
(§2) The protein melting temperature (Tm) determination was performed by monitoring protein unfolding with the fluoroprobe SYPRO Orange dye (Molecular Probes), which although completely quenched in aqueous environment, emits fluorescence upon binding to protein hydrophobic patches. Such increase in fluorescence can be measured as a function of temperature. The thermal shift assay was performed on an iCycle iQ5 Real Time PCR Detection System (Bio-Rad), equipped with a charge-coupled device (CCD) camera and a Cy3 filter with excitation and emission wavelengths of 490 and 575 nm, respectively. This equipment can simultaneously detect the fluorescence changes in 96-well plates (low profile plate, Bio-Rad) and thus can be used for parallel thermal stability assays. The 96-well plates are sealed with optical quality sealing tape (Bio-Rad) and centrifuged at 2500 g for 1 minutes immediately before the assay to remove possible air bubbles. The plates are subsequently heated from 20 to 90° C. with stepwise increments of 1° C. with 60 seconds equilibration time, followed by the fluorescence read out. Fluorescence intensities versus temperature are used to calculate the protein melting temperature (Tm) by determining the first derivative (d(Rfu)/dT) and extract the exact transition inflection point. Delta TM values (DTM) for the various conditions were calculated by subtracting the TM value obtained for the reference from the TM value obtained for each condition.
(§3) In a typical assay with a total volume of 20 μL, a protein concentration from 0.1-0.5 mg/mL and a dye concentration of 5 fold were used to guarantee the best signal to noise ratio. The protein stock solutions were prepared in their corresponding buffers before performing the DSF experiments. Stabiliser solutions and dyes were prepared according to each assay specific conditions. The assay was prepared by adding 1-2 μL of protein to 8-9 μL of dye buffer solution, and 10 μL of compound solution. Controls were prepared by replacing the volume of stabilisers by the correspondent buffer.
The stabilization of lysozyme in the presence of several stabilisers at 0.25 M concentration and at pH 3.6 and pH 12 was studied using DSF (FIG. 1). […] The stabilization effect was higher for GBA, GaGlyA, b-GGlyA, b-GaLA, b-GaGlyA, and b-GaBA at the higher pH (pH 12). All new compounds are able to stabilise lysozyme under both stress conditions.
Background: In DSF a fluorescence change marks the thermal transition of the protein.

Assay [2] relates to adalimumab (Humira®). The experiment in a line: Stabilization assay of adalimumab measured by DSF. The conditions noted are these: 0.25 M stabiliser; phosphate buffer pH 12; Tm without compounds 41 °C; FIG. 3. The procedure: as §1
as §2, with “The 96-well plates are sealed with optical quality sealing tape (Bio-Rad) and centrifuged at 2500 g for 1 minutes immediately before the assay to remove possible air bubbles.” left out, “condition. […]” for “condition.”

For assay [3], the system named is adalimumab (Humira®). The assay is described as follows: Stabilization assay of adalimumab (Humira) measured by HPSEC under low pH stress. Conditions: GaGlyA 0.5 M; Humira 0.4 mg/ml; room temperature, no thermal stress; compared with no stabiliser; FIG. 2. The procedure: High Performance Size Exclusion Chromatography (HPSEC) Assay
HP-SEC was performed with Waters 515 pump, a Waters 2487 Dual Absorbance Detector (Waters, USA) and a Rheodyme 77251 injector (Waters, USA). A TSK Gel G3000 SWXL column (300 mm×7.8 mm) (Tosoh Biosep, Germany) was used. The volume of injection was adjusted according to each sample concentration in order to inject […] sample of biological molecule, and separation was performed at a flow rate of 1.0 mL/min or adjusted as appropriate. A suitable running buffer was used, e.g., 100 mM sodium sulfate, 100 mM sodium phosphate dibasic pH 6.8 for Humira® samples. UV detection was performed at a wavelength suitable to detect the biological molecule, e.g., 280 nm. No thermal stress was applied and assay was performed at room temperature. Absorbance was measured to determine the concentration of biological molecule and thus determine amount of degredation of the biological molecule.
A pH titration of adalimumab (Humira®) to pH 3.2 was performed either in the absence and presence of stabiliser GaGlyA 0.5 M, and the results were analysed by HPSEC (FIG. 2). […] Absorbance was measured to determine the concentration of biological molecule and thus determine amount of degredation of the biological molecule. […]
For orientation: Size exclusion chromatography separates by hydrodynamic size, large species first.

In assay [4] the target is Factor IX (Homo sapiens, UniProt P00740). The assay is described as follows: Stabilization assay of Factor IX measured by DSF. The conditions noted are these: 0.25 M stabiliser in water, pH 7-8; Tm without compounds 50 °C; FIG. 5. The method, then: as §1, §2, §3
Stabilization of Factor IX using neutral amide-containing glycosides of the present invention were measured using DSF. The new stabilizers increased the melting temperature of factor IX at a 0.25 M concentration in water and at pH 7-8, as shown in FIG. 5.

Assay [5] has as its target T1, ubiquitin (Homo sapiens, UniProt P0CG47).
T1 construct: Stabilization Assay of Ubiquitin Measured by DSF
The assay is described as follows: Stabilization assay of ubiquitin measured by DSF. Conditions: 0.25 M compound; phosphate buffer pH 12; Tm without compounds 72 °C; FIG. 4. The method, then: as §1
as §2, with “The 96-well plates are sealed with optical quality sealing tape (Bio-Rad) and centrifuged at 2500 g for 1 minutes immediately before the assay to remove possible air bubbles.” left out, “condition. […]” for “condition.”

Data on nine compounds can be found in patent US12098162B2, “Neutral glycosylated amides and dianionic glucuronidated acids as stabilizers for biological molecules” (Extremochem, LDA, priority 2017, dated 2024).

Chain of lysozyme (P00698 19-147): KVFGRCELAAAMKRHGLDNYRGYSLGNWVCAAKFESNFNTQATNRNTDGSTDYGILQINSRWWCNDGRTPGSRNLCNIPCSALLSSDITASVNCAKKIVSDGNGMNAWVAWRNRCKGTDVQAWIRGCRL
Chain of Factor IX (P00740 47-461): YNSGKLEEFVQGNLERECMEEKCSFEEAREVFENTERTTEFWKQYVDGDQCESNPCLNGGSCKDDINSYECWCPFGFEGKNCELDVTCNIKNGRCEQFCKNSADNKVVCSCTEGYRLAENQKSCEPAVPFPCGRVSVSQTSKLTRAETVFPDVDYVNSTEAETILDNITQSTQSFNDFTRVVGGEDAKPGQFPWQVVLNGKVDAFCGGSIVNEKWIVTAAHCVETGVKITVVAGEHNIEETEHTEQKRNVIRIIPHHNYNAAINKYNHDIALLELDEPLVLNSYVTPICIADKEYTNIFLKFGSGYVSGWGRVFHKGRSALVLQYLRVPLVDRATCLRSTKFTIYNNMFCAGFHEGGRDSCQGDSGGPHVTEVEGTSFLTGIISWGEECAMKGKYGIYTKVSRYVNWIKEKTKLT

For beta-glucosyl-lactamide [b-GLA], in assay [1], the “stabilization effect on lysozyme (increase of melting temperature Tm)” value was “showed a stabilization effect”.
With `CC(CC(N)=O)O[C@@H]1O[C@H](CO)[C@H](O)[C@H](O)[C@H]1O` (stereo partly drawn) [b-GaBA, 3-O-(β-D-galactopyranosyl)-3-hydroxybutyramide], in assay [1], the “stabilization effect on lysozyme (increase of melting temperature Tm)” value is recorded as “showed a stabilization effect” and the “stabilization effect on lysozyme at pH 12 compared with pH 3.6” value (“stabilization effect … compared with pH 3.6” below) was “higher”. Moreover, in assay [2], the “increase of the melting temperature of adalimumab” value was found to be 22 °C.
As for `NC(=O)COC1O[C@H](CO)[C@H](O)[C@H](O)[C@H]1O` (stereo partly shown) [GaGlyA], in assay [1], the “stabilization effect on lysozyme (increase of melting temperature Tm)” value is “showed a stabilization effect” and the “stabilization effect … compared with pH 3.6” value is on record as “higher”. In addition, in assay [3], the “degradation of adalimumab after 12 hours at pH 3.2 (HPSEC)” value was “much reduced”.
With `C[C@H](O[C@H]1O[C@H](CO)[C@@H](O)[C@H](O)[C@@H]1O)C(N)=O` [MLA, (2S)-2-O-(α-D-mannopyranosyl)-3-propanamide], the “stabilization effect on lysozyme (increase of melting temperature Tm)” value in assay [1] was “showed a stabilization effect”.
In the case of `NC(=O)CO[C@H]1O[C@H](CO)[C@@H](O)[C@H](O)[C@@H]1O` [MglyA, 2-O-(α-D-mannopyranosyl)acetamide], the “stabilization effect on lysozyme (increase of melting temperature Tm)” value in assay [1] is “showed a stabilization effect”. In addition, the “stabilization of Factor IX (increase of melting temperature)” value in assay [4] is on record as “showed stabilization of factor IX”.
`CC(CC(N)=O)OC1O[C@H](CO)[C@@H](O)[C@H](O)[C@H]1O` (stereo partly drawn) [GBA, 3-O-(α/β-D-glucopyranosyl)-3-hydroxybutyramide]: in assay [1], the “stabilization effect on lysozyme (increase of melting temperature Tm)” value is given as “showed a stabilization effect” and the “stabilization effect … compared with pH 3.6” value is “higher”. Further, the “increase of the melting temperature of ubiquitin” value in assay [5] was found to be 9 °C. The “stabilization of Factor IX (increase of melting temperature)” value in assay [4] is “showed stabilization of factor IX”.
With beta-galactosyl-lactamide [b-GaLA], in assay [1], the “stabilization effect on lysozyme (increase of melting temperature Tm)” value is given as “showed a stabilization effect” and the “stabilization effect … compared with pH 3.6” value is given as “higher”.
Take `C[C@H](OC1O[C@H](CO)[C@H](O)[C@H](O)[C@H]1O)C(N)=O` (stereo partly shown) [GaLA]: the “stabilization effect on lysozyme (increase of melting temperature Tm)” value in assay [1] was “showed a stabilization effect”. Moreover, the “stabilization of Factor IX (increase of melting temperature)” value in assay [4] is “showed stabilization of factor IX”.
As for `NC(=O)COC1O[C@H](CO)[C@@H](O)[C@H](O)[C@H]1O` (stereo partly shown) [GGlyA], in assay [4], the “stabilization of Factor IX (increase of melting temperature)” value is reported as “showed stabilization of factor IX”.
